“And” between values parts separate entries of the source, which are not always exact repeats. Equal values may be shown once. Read-outs that look alike come from different tables or passages of the source. Values belong to the compound of their own block, whether it stands above or below them.
Columns and labels:
female CD1 mice = test: loperamide-induced antinociception, paw pressure struggle response latency; format: in vivo; settings: for functional character at σ1 receptor deduced in vivo: from potentiation of loperamide antinociception and reversal by PRE-084; for effect on loperamide-induced antinociception / effect alone on struggle response latency to mechanical stimulus: mice; for effect on loperamide-induced antinociception: injected paw; for effect alone on struggle response latency to mechanical stimulus: 450 g paw pressure, without loperamide
[1] = target: T1, human recombinant histamine H3R (Homo sapiens, UniProt Q9Y5N1); settings: mean [CI 95%]; read-out: hH3R Ki; cited from earlier work
T1 construct: expressed in transfected cells
T1 sequence (Q9Y5N1 whole entry): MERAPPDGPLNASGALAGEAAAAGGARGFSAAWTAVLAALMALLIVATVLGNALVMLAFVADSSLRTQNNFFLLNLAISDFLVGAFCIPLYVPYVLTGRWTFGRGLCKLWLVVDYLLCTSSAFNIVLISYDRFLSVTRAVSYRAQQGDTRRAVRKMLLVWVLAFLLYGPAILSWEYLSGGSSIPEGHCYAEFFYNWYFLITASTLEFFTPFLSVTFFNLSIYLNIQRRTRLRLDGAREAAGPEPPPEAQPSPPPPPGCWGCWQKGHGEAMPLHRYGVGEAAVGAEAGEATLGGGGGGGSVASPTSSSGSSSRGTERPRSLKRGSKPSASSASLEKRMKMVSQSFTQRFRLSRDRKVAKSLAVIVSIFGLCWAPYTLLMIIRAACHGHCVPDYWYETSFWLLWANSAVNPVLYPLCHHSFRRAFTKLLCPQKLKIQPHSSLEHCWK

hH1R [2] = target: T2, hH1R (Homo sapiens, UniProt P35367); parameters: method as in PMID 33261900; settings: cited from earlier work
T2 construct: SP (signal peptide) (N); expressed in transfected cells
T2 sequence (P35367 whole entry): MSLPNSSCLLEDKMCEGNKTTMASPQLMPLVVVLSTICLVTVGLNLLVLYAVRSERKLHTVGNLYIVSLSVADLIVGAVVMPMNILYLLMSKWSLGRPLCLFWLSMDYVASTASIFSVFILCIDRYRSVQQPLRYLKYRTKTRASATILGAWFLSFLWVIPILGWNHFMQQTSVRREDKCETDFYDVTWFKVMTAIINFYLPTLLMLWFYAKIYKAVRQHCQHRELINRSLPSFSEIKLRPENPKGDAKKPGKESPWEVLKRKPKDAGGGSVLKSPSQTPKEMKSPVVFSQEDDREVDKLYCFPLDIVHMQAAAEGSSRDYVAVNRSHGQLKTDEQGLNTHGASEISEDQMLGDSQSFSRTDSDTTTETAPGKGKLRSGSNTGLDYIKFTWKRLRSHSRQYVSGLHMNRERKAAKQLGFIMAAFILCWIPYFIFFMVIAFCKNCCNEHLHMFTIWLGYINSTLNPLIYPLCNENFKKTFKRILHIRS

human H3R = target: T3, human H3R (Homo sapiens, UniProt Q9Y5N1); parameters: method as in PMID 33261900; settings: antagonist mode; read-out: hH3R Kb; cited from earlier work
T3 construct: expressed in transfected cells
T3 sequence (Q9Y5N1 whole entry): as the sequence (Q9Y5N1 whole entry) above

σ2R [3] = target: T4, σ2R (Rattus norvegicus, UniProt Q5U3Y7); test: σ2R radioligand binding ([3H]DTG, liver membranes)
T4 sequence (Q5U3Y7 1-176): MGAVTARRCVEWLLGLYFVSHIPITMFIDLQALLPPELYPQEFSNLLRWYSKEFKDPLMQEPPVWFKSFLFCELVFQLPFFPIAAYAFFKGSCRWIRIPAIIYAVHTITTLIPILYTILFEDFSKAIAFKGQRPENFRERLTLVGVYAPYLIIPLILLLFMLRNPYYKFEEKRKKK

σ1R = σ1R (Cavia porcellus, UniProt Q60492); test: σ1R radioligand binding ([3H](+)-pentazocine, brain cortex membranes)
Sequence of σ1R (Q60492 whole entry): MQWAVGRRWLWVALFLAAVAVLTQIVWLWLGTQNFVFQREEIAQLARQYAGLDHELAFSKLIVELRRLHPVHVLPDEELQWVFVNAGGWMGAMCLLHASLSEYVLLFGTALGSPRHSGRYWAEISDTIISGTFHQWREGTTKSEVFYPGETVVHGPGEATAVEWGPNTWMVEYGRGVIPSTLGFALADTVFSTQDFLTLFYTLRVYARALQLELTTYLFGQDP

σ2R [4] = settings: read-out: σ2R IC50 (binding); cited from earlier work
σ1 receptor = settings: read-out: EC50, functional agonism of σ1 receptor-mediated calcium flux; cited from earlier work
σ2 receptor = settings: cited from earlier work
hH1R [5] = target: T2, hH1R; test: hH1R radioligand binding ([3H]mepyramine); settings: HEK293T cells; oxalate form
Protocol: (§1) Compounds (as oxalate salts) were tested in H3R in vitro binding studies, using methods described previously.[47],[48] […] Radioligand binding experiments at the H1R, H2R, and H4R were performed as previously described in Rosier et al.[70] and Bartole et al.[71] with HEK293T-SP-FLAG-hHxR (x = 1, 2, or 4) expressing the respective hHR. […] Data represent mean values ± CI from three independent experiments, each performed in triplicate. The normalized competition binding curves were then fitted with a four-parameter logistic fit yielding IC50 values using Prism 8.4.3 software (GraphPad, SanDiego, CA). The Ki values were estimated from the Cheng–Prusoff equation.[74]

hH2R = target: T5, hH2R (Homo sapiens, UniProt P25021); test: hH2R radioligand binding ([3H]UR-DE257); settings: HEK293T cells; oxalate form
T5 construct: SP (signal peptide) (N); expressed in transfected cells
T5 sequence (P25021 whole entry): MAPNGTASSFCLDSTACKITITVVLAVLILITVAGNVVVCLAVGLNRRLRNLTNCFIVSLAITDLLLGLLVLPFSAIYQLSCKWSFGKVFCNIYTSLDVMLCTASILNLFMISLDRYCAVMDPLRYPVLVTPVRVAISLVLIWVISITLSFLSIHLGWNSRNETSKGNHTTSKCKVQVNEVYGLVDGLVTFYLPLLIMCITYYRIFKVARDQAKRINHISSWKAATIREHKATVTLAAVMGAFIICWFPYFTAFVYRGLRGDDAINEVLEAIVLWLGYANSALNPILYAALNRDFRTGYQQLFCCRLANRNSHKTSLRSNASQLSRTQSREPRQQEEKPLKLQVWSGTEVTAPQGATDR
Protocol: as §1

hH4R = target: T6, hH4R (Homo sapiens, UniProt Q9H3N8); test: hH4R radioligand binding ([3H]UR-PI294); settings: HEK293T cells; oxalate form
T6 construct: SP (signal peptide) (N); expressed in transfected cells
Protocol: as §1

[6] = quoted for comparison of basicity; no reference given; cited from earlier work
[7] = exptl Ki σ2, Table 3, given as mean ± spread
[8] = σ2R Ki, mean [CI 95%], [3H]DTG with (+)-pentazocine mask
[9] = exptl Ki σ1, Table 3, given as mean ± spread
[10] = σ1R Ki, mean [CI 95%], [3H](+)-pentazocine

SMILES: O=C(c1ccc(OCCCN2CCC(c3ccncc3)CC2)cc1)C1CC1 [Compound 5]
functional character at σ1 receptor deduced in vivo (female CD1 mice): σ1 receptor antagonists
effect on loperamide-induced antinociception (female CD1 mice; ipl 100 μg + loperamide 4 mg/kg sc): increased the antinociceptive effect of loperamide at the injected paw
effect alone on struggle response latency to mechanical stimulus (female CD1 mice; ipl 100 μg): did not have any effect per se
Ki [1]: 8 nM
Ki (hH1R [2]): > 10000 nM
Kb (human H3R): 18.8 nM
Ki (σ2R [3]; [7]): 22.4 ± 4.13 nM
Ki (σ2R [3]; [8]): 22 nM and 22.4 nM
Ki (σ1R; [9]): 3.64 ± 0.74 nM
Ki (σ1R; [10]): 3.64 nM

SMILES: Clc1ccc(CCCOCCCN2CCCCC2)cc1 [PIT, Pitolisant]
IC50 (σ2R [4]): 8.55 nM
EC50 (σ1 receptor): 402 nM
agonist activity in σ2 receptor-mediated calcium flux functional assay (σ2 receptor): did not elicit agonist activity
IC50 (σ2 receptor; read-out: IC50, decrease of haloperidol-induced calcium release (antagonist)): 10000 nM

Ki (hH1R [5]): > 10000 nM
Ki (hH2R): > 100000 nM
Ki (hH4R): > 10000 nM
Ki (σ2R [3]; [7]): 67.9 ± 7.51 nM
Ki (σ2R [3]; [8]): 68 nM and 67.9 nM
Ki (σ1R; [9]): 4.41 ± 0.58 nM
Ki (σ1R; [10]): 4.41 nM
SMILES: c1ccc(-c2ccc(OCCCN3CCCCC3)cc2)cc1 [Compound 11]
functional character at σ1 receptor deduced in vivo (female CD1 mice): σ1 receptor antagonists
effect on loperamide-induced antinociception (female CD1 mice; ipl 50 μg + loperamide 4 mg/kg sc): increased the antinociceptive effect of loperamide at the injected paw
effect alone on struggle response latency to mechanical stimulus (female CD1 mice; ipl 50 μg): did not have any effect per se

SMILES: CN(C)c1ccncc1 [DMAP]
pKa [6]: 9.2

— PMC8739840, “Structural and Molecular Insight into Piperazine and Piperidine Derivatives as Histamine H3 and Sigma-1 Receptor Antagonists with Promising Antinociceptive Properties” (ACS Chemical Neuroscience, 2021)
